{"source": "paper PMC10974533", "about": "“Cationicity Enhancement on the Hydrophilic Face of Ctriporin Significantly Reduces Its Hemolytic Activity and Improves the Antimicrobial Activity against Antibiotic-Resistant ESKAPE Pathogens” (Toxins, 2024)", "key": {"[1]": {"tested_on": "carbapenem-resistant (CRE) A. baumannii", "conditions": "cited from earlier work", "description": "A wealth of CαAMPs have been identified from the venom glands of various scorpion species. Among these peptides, the members of short cationic AMP family are a group of cationic α-helical peptides with 17 to 19 residues, including Ctriporin [17], Mucroporin [18], Imcroporin [19], Stigmurin [20], TsAP-1 and TsAP-2 [21], AamAP1 and AamAP2 [22], and BmKb1 and BmKb2 [23]. Some peptides from this family were reported to show antimicrobial activity against methicillin-resistant S. aureus. We identified Lausporin-2 from the venom of Liocheles au ..."}, "standard ESKAPE strains": {"tested_on": "standard ESKAPE strains", "format": "cell-based", "conditions": "broth dilution (CLSI), MHB", "experimental": "The ESKAPE pathogens represent the main threat to public health concerning antimicrobial resistance. Therefore, we first evaluated the antimicrobial activities of Ctriporin and its analogs against the standard ESKAPE strains. The minimum inhibitory concentration (MIC) was chosen as the index for the evaluation of each peptide’s activity. […] Note that the MICs of CM4 and CM7 are 4–32 and 8–32 μg/mL, respectively, indicating the existence of significant bacterial species deviations for the antimicrobial activity of these peptides. In addition, the replacement of specific residues, especially Pro^7, may harm the antimicrobial activities of the peptide.\n(§1) The standard strains, including S. aureus ATCC29213 and ATCC25923, E. faecalis ATCC29212, E. coli ATCC25922 and ATCC35218, A. baumannii ATCC19606, K. pneumoniae ATCC700603, and P. aeruginosa ATCC27853, were purchased from the China Center of Type Culture Collection (CCTCC). The clinical strains of the ESKAPE pathogens were isolated from the affiliated hospitals of Hubei University of Medicine. All of them were stored at −80 °C before use. The drug sensitivities of the clinical strains were determined by the Kirby–Bauer test.\n(§2) The MICs were determined using the broth dilution method according to the guidelines of the Clinical and Laboratory Standards Institute (CLSI), as described in the previous studies. Briefly, the bacterial cells were incubated in Mueller–Hinton broth (MHB, Oxoid, Basingstoke, UK) at 37 °C and 150 rpm to the mid-growth phase and diluted to achieve a final concentration of 5 × 10^5 colony-forming units per milliliter (CFU/mL). Then, the cells were mixed with each peptide in different concentrations (1, 2, 4, 8, 16, 32, and 64 μg/mL). […] All experiments were repeated at least three times."}, "A. baumannii 19462": {"tested_on": "A. baumannii 19462", "test": "MIC, broth dilution, clinical isolate", "format": "cell-based", "conditions": "CRE/MDR clinical isolate", "experimental": "as §1, §2"}, "S. capitis 3255": {"tested_on": "S. capitis 3255", "test": "MIC, broth dilution, clinical isolate", "format": "cell-based", "conditions": "MRSC clinical isolate", "experimental": "as §1, §2"}, "A. baumannii 19295": {"tested_on": "A. baumannii 19295", "test": "MIC, broth dilution, clinical isolate", "format": "cell-based", "conditions": "CRE/MDR clinical isolate", "experimental": "as §1, §2"}, "[2]": {"conditions": "broth dilution (CLSI), MHB, 5 × 10^5 CFU/mL, 37 °C, 16–20 h, OD630"}}, "note": "Where a SMILES comes first, the peptide text is derived from it.", "data": [{"smiles": "CC[C@H](C)[C@H](NC(=O)[C@H](C)NC(=O)CNC(=O)[C@@H]1CCCN1C(=O)[C@@H](NC(=O)[C@H](CC(C)C)NC(=O)CNC(=O)[C@H](Cc1c[nH]c2ccccc12)NC(=O)[C@H](CC(C)C)NC(=O)[C@@H](N)Cc1ccccc1)[C@@H](C)CC)C(=O)N[C@@H](CO)C(=O)N[C@@H](C)C(=O)N[C@H](C(=O)N[C@H](C(=O)N[C@@H](CO)C(=O)N[C@@H](CC(C)C)C(=O)N[C@H](C(=O)N[C@@H](CCCCN)C(=O)N[C@@H](CCCCN)C(N)=O)[C@@H](C)CC)[C@@H](C)O)C(C)C", "note": "[Ctriporin] (H-FLWGLIPGAISAVTSLIKK-NH2; N-terminus assumed)", "values": [{"measurement": "antimicrobial activity against carbapenem-resistant (CRE) A. baumannii", "setting": "[1]", "result": "moderate antimicrobial activity"}, {"measurement": "MICs against S. aureus and A. baumannii", "setting": "standard ESKAPE strains; standard strains of S. aureus and A. baumannii", "result": "16 to 32", "unit": "µg/mL"}, {"measurement": "MICs for other tested bacterial species", "setting": "standard ESKAPE strains; standard strains other than S. aureus and A. baumannii", "result": "≥ 64", "unit": "µg/mL"}, {"measurement": "MICs", "setting": "A. baumannii 19462; [2]", "result": 16, "unit": "µg/mL"}, {"measurement": "MICs", "setting": "A. baumannii 19462; value in parentheses", "result": 8.0, "unit": "µM"}, {"measurement": "MICs", "setting": "S. capitis 3255; [2]", "result": 8, "unit": "µg/mL"}, {"measurement": "MICs", "setting": "S. capitis 3255; value in parentheses", "result": 4.0, "unit": "µM"}, {"measurement": "MICs", "setting": "A. baumannii 19295; [2]", "result": 32, "unit": "µg/mL"}, {"measurement": "MICs", "setting": "A. baumannii 19295; value in parentheses", "result": 15.9, "unit": "µM"}]}]}
